From patent US11464750B2, “Anticancer agent and use thereof” (priority 2017, dated 2022)

Experiments:
Format in all cases: cell-based, human
[1] = system: BALL-1 cells; assay: MTT assay, BALL-1 cells; conditions: 0.01, 0.05, 0.1, 0.5, and 1 μM, 48 hours
Method: BALL-1 cells of a cell line derived from […], TKG0210 cells of a human myeloid leukemia cell line, and TKG0377 cells of a human T cell acute leukemia cell line were seeded in 96-well plates at 2.5×10^4 cells/well/100 μL, and cultured for 48 hours in the presence of 3EZ,20Ac-ingenol at final concentrations of 0 (control), 0.5, 1, 5, and 10 μM. Subsequently, cell proliferation was examined by MTT assay using a Cell Proliferation Kit 1 (Roche Applied Science).
BALL-1 cells were exposed to 3EZ,20Ac-ingenol, 3EE,20Ac-ingenol, 20Ac-ingenol, and ingenol at concentrations of 0.01, 0.05, 0.1, 0.5, and 1 μM for 48 hours. Thereafter, cell proliferation was examined by MTT assay. Cells that were not exposed to the chemical were used as controls. The chemical formulas of 3EZ,20Ac-ingenol, 3EE,20Ac-ingenol, and 20Ac-ingenol are as described above. The chemical formula of ingenol is shown in the following Formula (7).

[2] = system: Panc-1 cells; assay: MTT assay, Panc-1 cells; conditions: irinotecan, 48 hours
Method: (§1) JeKo-1 cells of a cell line derived from a human mantle cell lymphoma were seeded in a 96-well plate at 1×10^4 cells/well/100 μL. In addition, Panc-1 cells of a cell line derived from a human pancreatic cancer were seeded in a 96-well plate at 3×10^3 cells/well/100 μL.
(§2) Subsequently, 3EZ,20Ac-ingenol at final concentrations of 0 (control), 0.1, 0.5, 1, 5, and 10 μM was added the wells of the respective cells, and culturing was performed for 48 hours. Subsequently, cell proliferation was examined by MTT assay using a Cell Proliferation Kit I (Roche Applied Science).
(§3) First, JeKo-1 cells were seeded in a 96-well plate at 1×10^4 cells/well/100 μL. Subsequently, irinotecan at a final concentration of 0 (control), 0.5, 1, 5, 10, 20, and 30 μM was added to the wells of the cells and culturing was performed for 48 hours. In addition, Panc-1 cells were seeded in a 96-well plate at 3×10^3 cells/well/100 μL. Subsequently, irinotecan at a final concentration of 0 (control), 0.5, 1, 5, 10, 20, 30, and 50 μM was added to the wells of the cells and culturing was performed for 48 hours. Subsequently, cell proliferation was examined by MTT assay using a Cell Proliferation Kit I (Roche Applied Science).

[3] = system: JeKo-1 cells; assay: MTT assay, JeKo-1 cells; conditions: 48 hours
Method: as §1, §2, §3

CC(=O)OCC1=C[C@@H]2C(=O)C3(C=C(C)[C@H](O)[C@@]3(O)[C@@H]1O)[C@H](C)C[C@@H]1[C@H]2C1(C)C [20Ac-ingenol]
inhibition of proliferation of the BALL-1 cells [1]: inhibition of proliferation of the BALL-1 cells was observed

CC1=C[C@]23C(=O)[C@@H](C=C(CO)[C@@H](O)[C@]2(O)[C@H]1O)[C@H]1[C@@H](C[C@H]3C)C1(C)C [ingenol, reference compound]
inhibition of proliferation of the BALL-1 cells [1]: little effect on proliferation

CCc1c2c(nc3ccc(OC(=O)N4CCC(N5CCCCC5)CC4)cc13)-c1cc3c(c(=O)n1C2)COC(=O)[C@]3(O)CC [irinotecan, reference compound]
resistance of Panc-1 cells [2]: showed resistance | proliferation inhibition of JeKo-1 cells ([3]; 1 to 20 μM of irinotecan): grown cells were almost eliminated | IC50 ([3]; Homo sapiens, JeKo-1, MTT assay, read-out: IC50 with respect to the JeKo-1 cells): 5 µM

CCCCC/C=C/C=C/C(=O)O[C@H]1C(C)=C[C@]23C(=O)[C@@H](C=C(COC(C)=O)[C@@H](O)[C@]12O)[C@H]1[C@@H](C[C@H]3C)C1(C)C [3EE,20Ac-ingenol]
inhibition of proliferation of the BALL-1 cells [1]: a significant level of inhibition of proliferation
